Measured values published in patent publication US9283222B2 (priority 2006, dated 2016).
Like-named read-outs stand apart in the source and are kept apart here.

Target: Recombinant Human Poly(ADP-Ribose) Polymerase (PARP), PARP-1 (Homo sapiens (Human), UniProt P09874)
Settings: read-out: PARP-1 (Ki)
[1] = Table 1, text calls the values EC50s

Chain of Recombinant Human Poly(ADP-Ribose) Polymerase (PARP), PARP-1 (P09874 whole entry): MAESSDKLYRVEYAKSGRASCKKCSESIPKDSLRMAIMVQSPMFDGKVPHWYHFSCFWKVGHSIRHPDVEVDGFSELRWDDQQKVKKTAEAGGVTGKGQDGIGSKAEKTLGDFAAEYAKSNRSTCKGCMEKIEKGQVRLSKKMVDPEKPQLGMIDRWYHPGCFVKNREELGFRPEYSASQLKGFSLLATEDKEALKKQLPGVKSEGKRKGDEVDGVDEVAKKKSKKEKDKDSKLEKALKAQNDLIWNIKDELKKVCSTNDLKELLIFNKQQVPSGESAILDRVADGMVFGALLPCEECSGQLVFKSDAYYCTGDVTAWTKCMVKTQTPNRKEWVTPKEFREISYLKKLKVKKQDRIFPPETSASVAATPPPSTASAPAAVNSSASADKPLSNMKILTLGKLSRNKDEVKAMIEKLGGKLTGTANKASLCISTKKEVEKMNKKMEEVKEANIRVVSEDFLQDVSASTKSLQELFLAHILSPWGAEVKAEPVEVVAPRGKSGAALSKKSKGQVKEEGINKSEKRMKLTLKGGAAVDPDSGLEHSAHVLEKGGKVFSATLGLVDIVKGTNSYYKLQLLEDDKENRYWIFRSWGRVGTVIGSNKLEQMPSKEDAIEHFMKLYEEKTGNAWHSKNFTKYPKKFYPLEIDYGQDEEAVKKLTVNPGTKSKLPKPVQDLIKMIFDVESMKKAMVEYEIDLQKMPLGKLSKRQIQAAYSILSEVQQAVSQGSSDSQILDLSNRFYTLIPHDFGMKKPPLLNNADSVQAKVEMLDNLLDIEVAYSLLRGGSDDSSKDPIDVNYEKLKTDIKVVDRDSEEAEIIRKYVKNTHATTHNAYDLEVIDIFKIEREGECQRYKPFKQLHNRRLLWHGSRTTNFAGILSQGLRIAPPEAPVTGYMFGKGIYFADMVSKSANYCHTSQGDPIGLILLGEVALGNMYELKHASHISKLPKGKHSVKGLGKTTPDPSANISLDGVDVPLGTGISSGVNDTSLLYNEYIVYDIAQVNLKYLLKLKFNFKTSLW

Ki [1] [µM] | Ki (Table 3, H analogs versus para-F analogs) [µM] | Structure (SMILES)
0.049 |  | COc1ccc(C(=O)Nc2cccc(Cc3n[nH]c(=O)c4c3CCCC4)c2)cc1F [Example 229, 3-fluoro-4-methoxy-N-(3-((4-oxo-3,4,5,6,7,8-hexahydrophthalazin-1-yl)methyl)phenyl)benzamide]
0.576 |  | O=C(Nc1ccc(Cc2n[nH]c(=O)c3c2CCCC3)cn1)c1cccnc1 [Example 108, N-(5-((4-oxo-3,4,5,6,7,8-hexahydrophthalazin-1-yl)methyl)pyridin-2-yl)nicotinamide]
0.022 |  | O=C(Nc1cccc(Cc2n[nH]c(=O)c3c2CCCC3)c1)c1ccno1 [Example 208, N-(3-((4-oxo-3,4,5,6,7,8-hexahydrophthalazin-1-yl)methyl)phenyl)isoxazole-5-carboxamide]
0.337 |  | COc1cc(NC(=O)c2cccc(Cc3n[nH]c(=O)c4c3CCCC4)c2)cc(C(F)(F)F)c1 [Example 347, N-(3-methoxy-5-(trifluoromethyl)phenyl)-3-((4-oxo-3,4,5,6,7,8-hexahydrophthalazin-1-yl)methyl)benzamide]
0.0015 |  | CCOC(=O)N1CCN(C(=O)c2cc(Cc3n[nH]c(=O)c4c3NCCC4)ccc2F)CC1 [Example 666, ethyl 4-{2-fluoro-5-[(5-oxo-1,2,3,4,5,6-hexahydropyrido[2,3-d]pyridazin-8-yl)methyl]benzoyl}piperazine-1-carboxylate]
0.0008 |  | O=C(NCCN1CCCC1=O)c1cc(Cc2n[nH]c(=O)c3c2CCCC3)ccc1F [Example 714, 2-fluoro-5-[(4-oxo-3,4,5,6,7,8-hexahydrophthalazin-1-yl)methyl]-N-[2-(2-oxopyrrolidin-1-yl)ethyl]benzamide]
0.008 |  | O=C(c1cccc(Cc2n[nH]c(=O)c3c2CCCC3)c1)N1CCN(CCO)CC1 [Example 439, 4-(3-((4-(2-hydroxyethyl)piperazin-1-yl)carbonyl)benzyl)-5,6,7,8-tetrahydrophthalazin-1(2H)-one]
0.0028 |  | O=C(c1ccccn1)N1CCCN(C(=O)c2cc(Cc3n[nH]c(=O)c4c3NCCC4)ccc2F)CC1 [Example 684, 8-(4-fluoro-3-{[4-(pyridin-2-ylcarbonyl)-1,4-diazepan-1-yl]carbonyl}benzyl)-2,3,4,6-tetrahydropyrido[2,3-d]pyridazin-5(1H)-one]
0.691 |  | CC(C)NC(=O)c1cccc(Cc2n[nH]c(=O)c3c2CCCC3)n1 [Example 82, N-isopropyl-6-((4-oxo-3,4,5,6,7,8-hexahydrophthalazin-1-yl)methyl)pyridine-2-carboxamide]
0.122 |  | CC(C)(C)c1cccc(NC(=O)c2cccc(Cc3n[nH]c(=O)c4c3CCCC4)c2)c1 [Example 335, N-(3-tert-butylphenyl)-3-((4-oxo-3,4,5,6,7,8-hexahydrophthalazin-1-yl)methyl)benzamide]
0.856 |  | CCNC(=O)c1ccc(Cc2n[nH]c(=O)c3c2CCCC3)cn1 [Example 94, N-ethyl-5-((4-oxo-3,4,5,6,7,8-hexahydrophthalazin-1-yl)methyl)pyridine-2-carboxamide]
0.203 |  | O=C(Nc1cccc(Cc2n[nH]c(=O)c3c2CCCC3)c1)c1nccs1 [Example 204, N-(3-((4-oxo-3,4,5,6,7,8-hexahydrophthalazin-1-yl)methyl)phenyl)-1,3-thiazole-2-carboxamide]
0.25 |  | CCCc1ccc(C(=O)Nc2cccc(Cc3n[nH]c(=O)c4c3CCCC4)c2)cc1 [Example 185, N-(3-((4-oxo-3,4,5,6,7,8-hexahydrophthalazin-1-yl)methyl)phenyl)-4-propylbenzamide]
0.014 |  | O=C(Nc1cccc(Cc2n[nH]c(=O)c3c2CCCC3)c1)C1=Cc2cc(Cl)ccc2OC1 [Example 220, 6-chloro-N-(3-((4-oxo-3,4,5,6,7,8-hexahydrophthalazin-1-yl)methyl)phenyl)-2H-chromene-3-carboxamide]
0.056 |  | CC(c1ccc(F)c(N2CCC2=O)c1)c1n[nH]c(=O)c2c1CCCC2 (centres unmarked) [Example 451, 4-(1-(4-fluoro-3-(2-oxoazetidin-1-yl)phenyl)ethyl)-5,6,7,8-tetrahydrophthalazin-1(2H)-one]
0.0028 |  | CC(C)(C)OC(=O)NC1CCN(C(=O)c2cc(Cc3n[nH]c(=O)c4c3NCCC4)ccc2F)CC1 [Example 700, tert-butyl 1-{2-fluoro-5-[(5-oxo-1,2,3,4,5,6-hexahydropyrido[2,3-d]pyridazin-8-yl)methyl]benzoyl}piperidin-4-ylcarbamate]
0.678 |  | CC[C@H](C(=O)Nc1cccc(Cc2n[nH]c(=O)c3c2CCCC3)c1)c1ccccc1 [Example 146, (2S)-N-(3-((4-oxo-3,4,5,6,7,8-hexahydrophthalazin-1-yl)methyl)phenyl)-2-phenylbutanamide]
0.004 |  | CN(C(=O)c1cc(Cc2n[nH]c(=O)c3c2NCCC3)ccc1F)C1CCN(C(=O)c2cscn2)CC1 [Example 717, 2-fluoro-N-methyl-5-[(5-oxo-1,2,3,4,5,6-hexahydropyrido[2,3-d]pyridazin-8-yl)methyl]-N-[1-(1,3-thiazol-4-ylcarbonyl)piperidin-4-yl]benzamide]
 | 0.28 | O=C(CCN1CCCCC1)Nc1cccc(Cc2n[nH]c(=O)c3c2CCCC3)c1 [drawing 24]

Ki [1] [µM] | Ki (Table 3, H analogs versus para-F analogs) [µM] | Structure (SMILES)
0.0011 |  | O=C(c1cc(Cc2n[nH]c(=O)c3c2NCCC3)ccc1F)N1CCN(C(=O)C2CCCCC2)CC1 [Example 568, 8-(3-{[4-(cyclohexylcarbonyl)piperazin-1-yl]carbonyl}-4-fluorobenzyl)-2,3,4,6-tetrahydropyrido[2,3-d]pyridazin-5(1H)-one]
0.0014 |  | O=C(c1cnccn1)N1CCN(C(=O)c2cc(Cc3n[nH]c(=O)c4c3CCCC4)ccc2F)CC1 [Example 679, 4-(4-fluoro-3-{[4-(pyrazin-2-ylcarbonyl)piperazin-1-yl]carbonyl}benzyl)-5,6,7,8-tetrahydrophthalazin-1(2H)-one]
0.014 |  | O=C(CN1CCCC1=O)Nc1cc(Cc2n[nH]c(=O)c3c2CCCC3)ccc1F [Example 453, N-(2-fluoro-5-((4-oxo-3,4,5,6,7,8-hexahydrophthalazin-1-yl)methyl)phenyl)-2-(2-oxopyrrolidin-1-yl)acetamide]
0.001 |  | CCN(CCNC(=O)c1c(F)cccc1F)C(=O)c1cc(Cc2n[nH]c(=O)c3c2CCCC3)ccc1F [Example 762, N-{2-[(2,6-difluorobenzoyl)amino]ethyl}-N-ethyl-2-fluoro-5-[(4-oxo-3,4,5,6,7,8-hexahydrophthalazin-1-yl)methyl]benzamide]
0.694 |  | O=c1[nH]nc(Cc2ccc(F)c(N3CCCCS3(=O)=O)c2)c2c1CCCC2 [Example 448]
0.051 |  | CN(C)c1ccc(NC(=O)c2cccc(Cc3n[nH]c(=O)c4c3CCCC4)c2)cc1 [Example 58, N-(4-(dimethylamino)phenyl)-3-((4-oxo-3,4,5,6,7,8-hexahydrophthalazin-1-yl)methyl)benzamide]
0.079 |  | COc1ccccc1CCNC(=O)c1cccc(Cc2n[nH]c(=O)c3c2CCCC3)c1 [Example 382, N-(2-(2-methoxyphenyl)ethyl)-3-((4-oxo-3,4,5,6,7,8-hexahydrophthalazin-1-yl)methyl)benzamide]
2.61 |  | CCNC(=O)c1ncccc1Cc1n[nH]c(=O)c2c1CCCC2 [Example 96, N-ethyl-3-((4-oxo-3,4,5,6,7,8-hexahydrophthalazin-1-yl)methyl)pyridine-2-carboxamide]
0.095 |  | CN(C)CCNC(=O)c1cccc(Cc2n[nH]c(=O)c3c2CCCC3)c1 [Example 313, N-(2-(dimethylamino)ethyl)-3-((4-oxo-3,4,5,6,7,8-hexahydrophthalazin-1-yl)methyl)benzamide]
0.222 |  | CC(=O)Nc1cccc(-c2cc(CCc3n[nH]c(=O)c4c3CCCC4)ccc2F)c1 [Example 274, N-(2′-fluoro-5′-(2-(4-oxo-3,4,5,6,7,8-hexahydrophthalazin-1-yl)ethyl)-1,1′-biphenyl-3-yl)acetamide]
0.005 |  | CC(C)n1c(C(F)(F)F)nc2cc(C(=O)N3CCN(C(=O)c4cc(Cc5n[nH]c(=O)c6c5CCCC6)ccc4F)CC3)ccc21 [Example 725, 4-{4-fluoro-3-[(4-{[1-isopropyl-2-(trifluoromethyl)-1H-benzimidazol-5-yl]carbonyl}piperazin-1-yl)carbonyl]benzyl}-5,6,7,8-tetrahydrophthalazin-1(2H)-one]
0.0018 |  | CCN1CCN(C(=O)c2cc(Cc3n[nH]c(=O)c4c3CCCC4)ccc2F)CC1 [Example 580, 4-{3-[(4-ethylpiperazin-1-yl)carbonyl]-4-fluorobenzyl}-5,6,7,8-tetrahydrophthalazin-1(2H)-one]
0.122 |  | O=c1[nH]nc(Cc2ccc(F)c(Cl)c2)c2c1CCCN2 [Example 450, 8-(3-chloro-4-fluorobenzyl)-2,3,4,6-tetrahydropyrido(2,3-d)pyridazin-5(1H)-one]
0.277 |  | COc1ccc(C)cc1NC(=O)c1cccc(Cc2n[nH]c(=O)c3c2CCCC3)c1 [Example 351, N-(2-methoxy-5-methylphenyl)-3-((4-oxo-3,4,5,6,7,8-hexahydrophthalazin-1-yl)methyl)benzamide]
0.006 |  | O=C(c1cccc(Cc2n[nH]c(=O)c3c2CCCC3)c1)N1CCC(n2c(=O)[nH]c3ccccc32)CC1 [Example 434, 4-(3-((4-(2-oxo-2,3-dihydro-1H-benzimidazol-1-yl)piperidin-1-yl)carbonyl)benzyl)-5,6,7,8-tetrahydrophthalazin-1(2H)-one]
0.963 |  | O=C(Nc1cccc(Cc2n[nH]c(=O)c3c2CCCC3)c1)c1ccccc1I [Example 245, 2-iodo-N-(3-((4-oxo-3,4,5,6,7,8-hexahydrophthalazin-1-yl)methyl)phenyl)benzamide]
0.019 |  | NC(=O)C1CCCN(C(=O)c2cccc(Cc3n[nH]c(=O)c4c3CCCC4)c2)C1 (centres unmarked) [Example 429, 1-(3-((4-oxo-3,4,5,6,7,8-hexahydrophthalazin-1-yl)methyl)benzoyl)piperidine-3-carboxamide]
0.042 |  | O=C(NCCc1ccccc1F)c1cccc(Cc2n[nH]c(=O)c3c2CCCC3)c1 [Example 385, N-(2-(2-fluorophenyl)ethyl)-3-((4-oxo-3,4,5,6,7,8-hexahydrophthalazin-1-yl)methyl)benzamide]

Structure (SMILES) | Ki [1] [µM] | Ki (Table 3, H analogs versus para-F analogs) [µM]
O=C(Nc1cccc(Cc2n[nH]c(=O)c3c2CCCC3)c1)C1CNC1 [Example 113, N-(3-((4-oxo-3,4,5,6,7,8-hexahydrophthalazin-1-yl)methyl)phenyl)azetidine-3-carboxamide] | 0.006 | 
